Entries after “also recorded” stand apart in the source; their conditions may differ.
Key:
KBM7 cells = assay: Dose-ranging cellular viability assays in neddylation-impaired isogenic KBM7 cells; format: cell-based, human; details: KBM7 cells modified in COPS8 or CAND1 versus non-modified control
Protocol: KBM7 cells mutated for five core genes were isolated and the underlying CRISPR-induced mutations were truncations leading to full knockouts (CAND1) or hypomorphic alleles (UBE2M, COPS8, COPS7B, GPS1). […] The observable shift in efficacy was at least 10-fold and up to 1000-fold, thus providing excellent signal to noise ratios. In sum, neddylation-impaired (NEDD^mut) cell line can be applied to find novel, yet uncharacterized MGs.
This is further exemplified when said cells are treated with the compound CC-885 (a molecular glue that reprograms the substrate receptor cereblon/CRBN to degrade GSPT1), or the PROTAC® compound THAL-SNS-032 (known to reprogram the substrate receptor cereblon/CRBN to degrade the cyclin dependent kinase 9, CDK9) (both see appended FIG. 22).
However, not for every cullin RING ligase (CRL), modifications of the COP9 signalosome subunit 8 (COPS8) or CAND1 (Cullin-associated NEDD8-dissociated protein 1; a substrate receptor exchange factor) lead to an ensuing destabilization via auto-degradation. An example for this is the substrate receptor VHL(von-Hippel-Lindau), which is part of the CRL2^VHL ligase complex. […] Therefore, measuring differential sensitivity of cells manipulated to contain altered neddylation states to a molecular glue/PROTAC® compound is a feasible surrogate to measure whether the substrate receptor that is reprogrammed by said molecular glue/PROTAC® undergoes destabilization/auto-degradation upon altering the neddylation states.

CRBN = molecular target: T1, CRBN (Homo sapiens, UniProt Q96SW2); assay: Re-stabilization of CRBN by small-molecule degraders after CSN5i-3 pretreatment (western blot); format: cell-based; details: WT cells pretreated 2 h with DMSO, 25, 100 or 500 nM CSN5i-3, then 500 nM compound; listed as SNS-THAL-032
T1 construct: endogenous in cells; host or cells: wild-type cells (KBM7 by context)
T1 sequence (Q96SW2 whole entry): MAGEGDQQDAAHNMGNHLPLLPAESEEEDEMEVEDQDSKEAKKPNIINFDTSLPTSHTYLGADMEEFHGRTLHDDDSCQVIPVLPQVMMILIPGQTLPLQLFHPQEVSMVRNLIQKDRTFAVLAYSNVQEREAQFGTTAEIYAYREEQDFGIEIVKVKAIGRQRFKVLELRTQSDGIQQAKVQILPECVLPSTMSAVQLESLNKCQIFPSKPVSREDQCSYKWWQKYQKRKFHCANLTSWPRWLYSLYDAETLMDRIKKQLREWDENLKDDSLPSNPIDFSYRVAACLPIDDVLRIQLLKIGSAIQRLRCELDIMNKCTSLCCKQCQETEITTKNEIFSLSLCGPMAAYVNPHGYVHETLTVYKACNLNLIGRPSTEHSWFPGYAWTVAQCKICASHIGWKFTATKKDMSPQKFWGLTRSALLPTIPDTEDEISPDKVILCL
Protocol: To explore the re-stabilization of SR upon ligand treatment, WT cells were pretreated with different doses of CSN5i-3 for 2h to firstly induce SR autodegradation. As a proof of principle, the SR CRBN was used, and the autodegradation by WB was checked (FIG. 2B-D).

Compound | Cytotoxic activity / sensitivity in COPS8- or CAND1-modified cells (KBM7 cells) | CRBN stabilization (western blot) (CRBN)
Cc1ncsc1-c1ccc([C@H](C)NC(=O)[C@@H]2C[C@@H](O)CN2C(=O)[C@@H](NC(=O)COCCCOCCNC(=O)C[C@@H]2N=C(c3ccc(Cl)cc3)c3c(sc(C)c3C)-n3c(C)nnc32)C(C)(C)C)cc1 [ARV-771] | sensitivity to ARV-771; also recorded: do not display an altered sensitivity | 
CC(C)(C)c1cnc(CSc2cnc(NC(=O)C3CCN(CC(=O)NCCOCCOCCOCCNc4cccc5c4C(=O)N(C4CCC(=O)NC4=O)C5=O)CC3)s2)o1 (stereo not drawn) [THAL-SNS-032] | reduced activity | time-dependent stabilization of CRBN; also recorded: CRBN was stabilized upon SNS-THAL-032 treatment in cells treated with DMSO, 25 nM and 100 nM CSN5i-3
